Measurements published in patent US4719297A, “Acylphosphine compounds and their use as photoinitiators” (priority 1981, dated 1988).

Legend:
[1] = Hardening activity of UP resin A under UV light, temperature/time curve (Table 2); settings: 0.2% compound
Description: (§1) To measure the hardening activity, the temperature curve for the unsaturated polyester resin (UP resin) was recorded during exposure to UV light. […] To avoid heat losses during the exposure to UV light, the lid was embedded in rigid expanded polyurethane foam. The UV light source used comprised 5 fluorescent tubes (TLAK 40 W/05 from Philips) side by side, at a distance of 8.5 cm from the UP resin surface.
(§2) The hardening time HT25° C.-T.sbsb.max and the maximum hardening temperature Tmax achieved were obtained, as characteristic parameters for the hardening activity, from the recorded temperature/time curves. The hardening time is the interval in which the sample temperature increases from 25° C. to Tmax.
(§3) The Examples and Comparative Examples were carried out using the following unsaturated polyester resins:
Resin A was a 65% strength solution, in styrene, of an unsaturated polyester of maleic acid, o-phthalic acid, ethylene glycol and propylene 1,2-glycol in the molar ratio of 1:2:2.3:0.70, the solution being stabilized with 0.01% of hydroquinone.
(§4) The hardening activity of the novel compounds 1 to 16 (cf. Table 1) was compared with the properties of the following compounds: […]

[2] = Hardening activity of UP resin B under UV light, temperature/time curve (Table 2); settings: 0.2% compound
Description: as §1, §2, §3
Resin B was a 67% strength solution, in styrene, of an unsaturated polyester of maleic acid, tetrahydrophthalic acid and diethylene glycol in the molar ratio of 1:0.5:1.5, the solution being stabilized with 0.01% of hydroquinone.
as §4

[3] = Hardening activity of UP resin C under UV light, temperature/time curve (Table 2); settings: 0.2% compound
Description: as §1, §2, §3
Resin C was a 66% strength solution, in styrene, of an unsaturated polyester of maleic acid, o-phthalic acid and propylene 1,2-glycol in the molar ratio of 1:0.5:1.5, the solution being stabilized with 0.01% of hydroquinone.
as §4

[4] = Shelf life of UP resin A containing a photoinitiator, stored at 60° C. (Table 3); type: physicochemical; settings: 0.2% initiator, dark
Description: (§5) To test the shelf life, 6.6 ml of each of the UP resins A, B and C (cf. Example 5) with an initiator content of 0.2% were introduced into brown sample bottles, and the closed bottles were stored at 60° C. At intervals of about 12 hours, the bottles were turned to determine whether gel particles had formed. As a measure of the shelf life, Table 3 gives the maximum storage time at which gel particles were still not observed.
(§6) In addition to the comparative compounds I, II and III, compound V below was also tested: V 2,4,6-trimethylbenzoyldiphenylphosphine oxide as described in U.S. Pat. No. 4,265,723.
(§7) The numbering scheme of the compounds in Table 3 is based on that of Table 1.

[5] = Shelf life of UP resin B containing a photoinitiator, stored at 60° C. (Table 3); type: physicochemical; settings: 0.2% initiator, dark
Description: as §5, §6, §7

[6] = Shelf life of UP resin C containing a photoinitiator, stored at 60° C. (Table 3); type: physicochemical; settings: 0.2% initiator, dark
Description: as §5, §6, §7

[7] = Shelf life of resins containing the compounds, overall comparison; type: physicochemical; settings: Table 3, in words
Description: as §5, §6

[8] = Minimum exposure time for faultless reproduction of the 3% tonality on photopolymerizable printing plate (Table 7); settings: 2 parts photoinitiator; UV about 3,300 μW/cm^2
Description: 60 parts by weight of a 1:1:1 copolyamide consisting of PA-6, PA-6.6 and PA-6.13, 30 parts by weight of ethylene glycol bis-(N-methylolacrylamide) ether, 10 parts by weight of benzenesulfonic acid N-(n-butyl)-amide, 150 parts by weight of methanol, 20 parts by weight of water, 0.02 part by weight of a chromium complex dye (CI No. 12,195), 0.3 part by weight of potassium N-nitrosocyclohexylhydroxylamine and 2 parts by weight of the photoinitiator given in Table 7 were dissolved at about 70° C. The photopolymerizable material was brought to a solids content of about 65% by distilling off part of the solvent and was then cast, at 60° C., on to a strip of steel sheet provided with an adhesive, and drying was effected in a drying oven for about 2 hours at 80° C. The resulting photopolymerizable printing plate contained a 0.5 mm thick layer with a solids content of about 95%.
Using a test negative which had, inter alia, 54 screen lines, per centimeter, of 3% tonality, the plate was exposed to a UV light intensity of about 3,300 μW/cm^2 on a flat-plate exposure unit equipped with superactinic fluorescent tubes. The unexposed parts of the plate which were protected from the UV light by the opaque image elements of the negative were then washed out in a spray washer for 5 minutes at 30° C. and under a spray pressure of 5 bar, using an ethanol/water mixture containing 80% of ethanol. The plate was thereafter dried for 6 minutes at 110° C. The minimum exposure time required for faultless reproduction of the 3% tonality was measured, and the results for various photoinitiators are summarized in Table 7.

[9] = Photopolymerization of monomer emulsion, properties of resulting polymer dispersions (Table 5)
Description: A monomer emulsion was prepared from 50 parts of methyl acrylate, 50 parts of ethyl acrylate, 1.3 parts of a 40% strength C15 -paraffin sulfonate, 1.3 parts of an adduct of isooctylphenol with 25 units of ethylene oxide (20% strength) and 210 parts of water in a conventional mixing unit.
This emulsion was introduced into a 1 l glass flask provided with an internal thermometer and a stirrer, and was freed from oxygen by twice evacuating the flask and gassing the emulsion with nitrogen. X parts of the photoinitiator in 6.7 parts of water were added, and the reaction vessel was then exposed for 60 minutes to light from a high pressure mercury vapor lamp of Type HQL/R 400 W from Osram, located 30 cm above the vessel. The beginning of polymerization was evident from an increase in the temperature. The amounts of photoinitiator employed and the properties of the resulting polymer dispersions are summerized in Table 5, photoinitiator 4 (cf. Table 1) being compared with photoinitiator VI (described in U.S. Pat. No. 4.257,859).

[10] = 1.7 parts X employed, 60 min exposure

## Cc1cc(C)c(C(=O)P(=O)(O)c2ccccc2)c(C)c1 [Compound 5]
[1]
  hardening time HT 25°-Tmax: 5/38
  maximum hardening temperature Tmax: 118 °C

## Cc1cc(C)c(C(=O)P(=O)(O)c2ccccc2)c(C)c1 [Compound 6]
[1]
  hardening time HT 25°-Tmax: 5/53
  maximum hardening temperature Tmax: 115 °C

## Cc1cc(C)c(C(=O)P(=O)(O)c2ccccc2)c(C)c1 [Compound 8, Calcium bis-(2,4,6-trimethylbenzoylphenylphosphinate)]
[1]
  hardening time HT 25°-Tmax: 5/53
  maximum hardening temperature Tmax: 114 °C
[2]
  hardening time HT 25°-Tmax: 6/00
  maximum hardening temperature Tmax: 130 °C

## Cc1cc(C)c(C(=O)P(=O)(O)c2ccccc2)c(C)c1 [Compound 9]
[1]
  hardening time HT 25°-Tmax: 5/53
  maximum hardening temperature Tmax: 110 °C
[2]
  hardening time HT 25°-Tmax: 4/45
  maximum hardening temperature Tmax: 125 °C
[3]
  hardening time HT 25°-Tmax: 5/45
  maximum hardening temperature Tmax: 129 °C
[4]
  Shelf life: 180 h
[5]
  Shelf life: 140 h
[6]
  Shelf life: 180 h
[7]
  shelf life of resins compared with compounds II, III and V: substantially superior
  shelf life of resins compared with resins containing I: not significantly different

## Cc1cc(C)c(C(=O)P(=O)(O)c2ccccc2)c(C)c1 [Compound 11]
[1]
  hardening time HT 25°-Tmax: 5/23
  maximum hardening temperature Tmax: 118 °C
[2]
  hardening time HT 25°-Tmax: 4/30
  maximum hardening temperature Tmax: 124 °C
[3]
  hardening time HT 25°-Tmax: 5/15
  maximum hardening temperature Tmax: 120 °C
[4]
  Shelf life: 180 h
[5]
  Shelf life: 155 h
[6]
  Shelf life: 204 h
[7]
  shelf life of resins compared with compounds II, III and V: substantially superior
  shelf life of resins compared with resins containing I: not significantly different

## Cc1cc(C)c(C(=O)P(=O)(O)c2ccccc2)c(C)c1 [Compound 13]
[1]
  hardening time HT 25°-Tmax: 6/08
  maximum hardening temperature Tmax: 115 °C
[2]
  hardening time HT 25°-Tmax: 5/30
  maximum hardening temperature Tmax: 126 °C
[3]
  hardening time HT 25°-Tmax: 5/23
  maximum hardening temperature Tmax: 121 °C

## Cc1cc(C)c(C(=O)P(=O)(O)c2ccccc2)c(C)c1 [Compound 14]
[1]
  hardening time HT 25°-Tmax: 5/30
  maximum hardening temperature Tmax: 122 °C
[2]
  hardening time HT 25°-Tmax: 4/53
  maximum hardening temperature Tmax: 118 °C
[3]
  hardening time HT 25°-Tmax: 5/38
  maximum hardening temperature Tmax: 123 °C
[4]
  Shelf life: 180 h
[5]
  Shelf life: 155 h
[6]
  Shelf life: 204 h
[8]
  Minimum exposure time required for reproducing the 3% tonality: 110 s
[7]
  shelf life of resins compared with compounds II, III and V: substantially superior
  shelf life of resins compared with resins containing I: not significantly different

## Cc1cc(C)c(C(=O)P(=O)(O)c2ccccc2)c(C)c1 [Compound 15]
[1]
  hardening time HT 25°-Tmax: 7/15
  maximum hardening temperature Tmax: 113 °C
[2]
  hardening time HT 25°-Tmax: 8/00
  maximum hardening temperature Tmax: 119 °C
[3]
  hardening time HT 25°-Tmax: 7/30
  maximum hardening temperature Tmax: 109 °C

## Cc1cc(C)c(C(=O)P(=O)(O)c2ccccc2)c(C)c1 [Compound 16]
[1]
  hardening time HT 25°-Tmax: 5/15
  maximum hardening temperature Tmax: 115 °C

## Cc1cc(C)c(C(=O)P(=O)(O)c2ccccc2)c(C)c1 [Compound 17]
[1]
  hardening time HT 25°-Tmax: 5/38
  maximum hardening temperature Tmax: 120 °C
[4]
  Shelf life: 270 h
[7]
  shelf life of resins compared with compounds II, III and V: substantially superior

## Cc1cc(C)c(C(=O)P(=O)(O)c2ccccc2)c(C)c1 [Compound 18]
[4]
  Shelf life: 270 h
[7]
  shelf life of resins compared with compounds II, III and V: substantially superior

## Cc1cc(C)c(C(=O)P(=O)(OC(C)C)c2ccccc2)c(C)c1 (stereo not drawn) [II, isopropyl 2,4,6-trimethylbenzoylphenylphosphinate, reference compound]
[1]
  hardening time HT 25°-Tmax: 6/45
  maximum hardening temperature Tmax: 107 °C
[2]
  hardening time HT 25°-Tmax: 5/15
  maximum hardening temperature Tmax: 128 °C
[3]
  hardening time HT 25°-Tmax: 6/08
  maximum hardening temperature Tmax: 120 °C
[4]
  Shelf life: 140 h
[5]
  Shelf life: 155 h
[6]
  Shelf life: 120 h

## COC(OC)(C(=O)c1ccccc1)c1ccccc1 [III, benzil dimethyl ketal, reference compound]
[1]
  hardening time HT 25°-Tmax: 8/00
  maximum hardening temperature Tmax: 114 °C
[2]
  hardening time HT 25°-Tmax: 9/45
  maximum hardening temperature Tmax: 119 °C
[3]
  hardening time HT 25°-Tmax: 8/30
  maximum hardening temperature Tmax: 122 °C
[8]
  Minimum exposure time required for reproducing the 3% tonality: 165 s

## C[N+]1(CC(O)(C(=O)c2ccccc2)c2ccccc2)CCCC1 (stereo not drawn) [VI]
[9]; 0.04 parts X employed
  polymerization outcome: no polymerization
[9]; [10]
  Fikentscher K value: 146.1
  Residual monomers, ethyl acrylate: 0.012%
  Residual monomers, methyl acrylate: 0.036%
  Solids content: 30.8%
[9]; very low starting concentrations, in words
  initiation of photopolymerization at very low starting concentrations: no longer initiates polymerization
